Reference: US20220354998A1, “HYDROGEL-FILLED MICRONEEDLE ARRAYS AND USES THEREOF” (University of Connecticut, priority 2021, published 2022)
Values belong to the compound of their own block, whether it stands above or below them.

Columns and labels:
[1] = Dual-drug release from multi-length MNA into two-gel skin model; type: physicochemical; details: 1% alginate, 16 h
Procedure: Evaluation of Dual-Drug Release Capability. For the dual release, MNAs with 4.2 mm long and 2 mm short needles were separately loaded with a 1% (m/v) alginate solution in DPBS containing ˜46 μg/mL of Rh-B, ˜1010 μg/mL of BSA-FITC, or no added analyte. Four combinations of analyte-loaded alginate MNAs were tested: (1) long needles loaded with Rh-B and short needles loaded with BSA-FITC (Rh-B/FITC), (2) long needles loaded with Rh-B and short needles blank (Rh-B/Blank), (3) long needles blank and short needles loaded with BSA-FITC (Blank/FITC), and (4) both lengths blank (Blank/Blank). The gels were crosslinked as previously mentioned and ran in quintuplicate. The needles were inserted into a two-gel skin model that include a 2 mm thick 3% (m/v) low-gelling agarose cast on top of a 3 mm thick 10% (m/v) porcine gelatin in 12 well plates. Both solutions were prepared in PBS. […] The collected gels were melted and the amount of Rh-B and BSA-FITC was quantified using a BioTek Cytation 5 plate reader at an excitation/emission of 546/568 and 495/520 nm, respectively.
An additional release experiment was conducted to evaluate the performance of the MNA at the dual-delivery of drugs. […] Following the release, the gel layers were separated, melted, and read in a plate reader for their Rh-B and BSA-FITC content. […] The measured release results are quantified in FIG. 5C, FIG. 5D, and FIG. 13. […]

[2] = test system: Human umbilical vein endothelial cells (HUVECs); experiment: In vitro scratch assay on cultured HUVECs; type: cell-based
Procedure: In Vitro Scratch Assay. Human umbilical vein endothelial cells (HUVECs) (Sigma-Aldrich) were cultured in EGM™ Endothelial Cell Growth Medium BulletKit™ (Lonza) complete medium. At their fifth passage, the HUVECs were detached using trypsin-EDTA (0.1% w/v), resuspended in the growth medium, and seeded at a concentration of 50,000 cells per well into a 12-well tissue culture plate that was coated with a thin layer of Geltrex® hESC-Qualified, Ready-To-Use, Reduced Growth Factor Basement Membrane Matrix (Gibco®). The Geltrex® layer was formed by diluting by a factor of 2 in the basal endothelial medium and seeding in empty wells. […]
A scratch was created in the confluent HUVECs by lightly dragging a P200 pipette tip across the bottom of the well. […] The concentration of VEGF in the MNA+VEGF group was calculated so that if total VEGF release occurred, the concentration of VEGF in the well would match the concentration of the positive control (50 ng/mL). […] The area of scratch closure for each time point was calculated using ImageJ (NIH, Bethesda, Md.) and compared for relative area change to 0 h.
The ability of the platform to preserve the bioactivity of encapsulated therapeutics was assessed by loading vascular endothelial growth factor (VEGF), an important angiogenic factor. […] Three different groups were evaluated: MNA−VEGF, MNA+VEGF, and a positive control. […]

Rh-B signal by gel layer ([1]; long needles (4.2 mm)): stronger in the gelatin
Compound: CCN(CC)c1ccc2c(-c3ccccc3C(=O)O)c3ccc(=[N+](CC)CC)cc-3oc2c1.[Cl-] [Rh-B, Rhodamine B]

Compound: BSA fluorescein isothiocyanate conjugate [BSA-FITC]
BSA-FITC signal by gel layer ([1]; short needles (2 mm)): greater BSA-FITC signal in the top, agarose layer

Compound: vascular endothelial growth factor [VEGF]
healing potential (gap closure) ([2]; after 8 h of culture, HUVEC scratch, n=4): cells nearly closed the gap in its entirety
effect on HUVEC migration ([2]; scratch assay): positive effect
